Target: ATP-dependent translocase ABCB1 (Homo sapiens, UniProt P08183)
Test: TP_TRANSPORTER: drug resistance (vincristine) in KBV200 cells
Format: functional, cell-based

Sequence of ATP-dependent translocase ABCB1 (P08183 whole entry): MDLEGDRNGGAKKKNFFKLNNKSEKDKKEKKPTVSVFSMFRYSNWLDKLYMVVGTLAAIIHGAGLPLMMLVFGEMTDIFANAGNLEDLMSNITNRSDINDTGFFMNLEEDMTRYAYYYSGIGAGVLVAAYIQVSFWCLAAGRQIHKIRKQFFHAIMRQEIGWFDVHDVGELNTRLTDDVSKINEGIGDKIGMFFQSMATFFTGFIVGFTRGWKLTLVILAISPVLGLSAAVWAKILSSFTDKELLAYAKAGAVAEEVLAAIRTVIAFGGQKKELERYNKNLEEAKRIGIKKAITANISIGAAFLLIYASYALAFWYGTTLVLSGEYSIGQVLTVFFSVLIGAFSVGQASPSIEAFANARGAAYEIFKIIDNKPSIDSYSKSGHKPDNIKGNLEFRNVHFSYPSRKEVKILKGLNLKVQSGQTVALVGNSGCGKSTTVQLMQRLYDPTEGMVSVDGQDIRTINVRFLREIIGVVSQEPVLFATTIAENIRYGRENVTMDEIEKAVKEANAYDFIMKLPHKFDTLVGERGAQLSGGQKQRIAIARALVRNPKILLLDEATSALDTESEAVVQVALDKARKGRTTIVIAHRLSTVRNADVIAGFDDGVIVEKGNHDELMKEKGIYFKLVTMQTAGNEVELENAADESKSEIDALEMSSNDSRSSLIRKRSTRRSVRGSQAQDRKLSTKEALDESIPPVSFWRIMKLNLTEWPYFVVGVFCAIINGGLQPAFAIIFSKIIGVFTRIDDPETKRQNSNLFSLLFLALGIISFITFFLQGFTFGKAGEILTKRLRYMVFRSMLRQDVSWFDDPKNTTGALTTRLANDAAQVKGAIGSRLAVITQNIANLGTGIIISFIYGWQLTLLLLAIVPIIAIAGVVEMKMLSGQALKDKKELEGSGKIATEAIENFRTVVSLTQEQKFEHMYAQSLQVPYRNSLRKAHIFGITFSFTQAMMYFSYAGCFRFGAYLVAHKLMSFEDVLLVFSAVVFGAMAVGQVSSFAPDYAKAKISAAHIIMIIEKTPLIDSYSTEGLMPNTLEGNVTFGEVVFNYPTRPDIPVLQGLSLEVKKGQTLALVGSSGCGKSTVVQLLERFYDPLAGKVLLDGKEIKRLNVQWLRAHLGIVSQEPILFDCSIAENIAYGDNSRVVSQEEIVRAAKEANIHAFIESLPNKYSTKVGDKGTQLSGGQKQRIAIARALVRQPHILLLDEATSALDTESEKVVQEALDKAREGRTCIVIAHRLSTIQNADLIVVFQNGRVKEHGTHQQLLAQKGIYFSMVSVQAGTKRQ

**Q.** Which Activity does the source give for `COc1ccc2cc1Oc1ccc(cc1)C[C@H]1c3cc(c(OC)cc3CCN1C)Oc1c(OC)c(OC)cc3c1[C@H](C2)N(C)CC3` [FANCHININ] here?
**A.** inhibitor [+]

Reference: ChEMBL document CHEMBL2074480, “Characterization of tetrandrine, a potent inhibitor of P-glycoprotein-mediated multidrug resistance” (Cancer Chemother Pharmacol, 2004)
